Measurements reported in patent US20120277209A1, “PYRAZINE COMPOUNDS AS PHOSPHODIESTERASE 10 INHIBITORS” (Amgen Inc., priority 2009, published 2012).

biological target: PDE10 (UniProt Q9Y233); assay: PDE10 enzyme inhibition, IMAP TR-FRET assay (MPDE10A7 Enzyme Activity and Inhibition); assay type: biochemical; details: IC50 class against PDE10; read-out: IC50
Method in brief: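 PDE10A enzyme or tissue homogenate preincubated with compounds 30 min at room temperature, then fluorescein-labelled cAMP or cGMP added for 60 min. IMAP binding reagent stop, TR-FRET read. Values are mean IC50s, grouped into five potency classes.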

Row | SMILES | IC50 [nM]
1 | CN(C)CC(=O)N1CCC(c2nccnc2Oc2ccc(Nc3nc4ccccc4s3)cc2)CC1 [Example 246, 1-(4-(3-(4-(benzo[d]thiazol-2-ylamino)phenoxy)pyrazin-2-yl)piperidin-1-yl)-2-(dimethylamino) ethanone] | < 25
2 | O=C(c1ccc(Oc2nccnc2C2CCNCC2)cc1)c1nc2ccccc2[nH]1 [Example 230, (1H-benzo[d]imidazol-2-yl)(4-(3-(piperidin-4-yl)pyrazin-2-yloxy)phenyl)methanone] | < 25
3 | Fc1cc(Oc2nccnc2Cl)ccc1Nc1nc2ccccc2s1 [Example 103, N-(4-(3-chloropyrazin-2-yloxy)-2-fluorophenyl)benzo[d]thiazol-2-amine] | 1000 to 5000
4 | OC1(c2nccnc2Oc2ccc(Nc3nc4ccccc4s3)cc2)CCOCC1 [Example 202, 4-(3-(4-(BENZO[D]THIAZOL-2-YLAMINO)PHENOXY)PYRAZIN-2-YL)TETRAHYDRO-2H-PYRAN-4-OL] | < 25
5 | O=C(c1ccc(Oc2nccnc2C2CCCOC2)cc1)c1nc2ccccc2[nH]1 (stereo not shown) [Example 186, 1H-benzimidazol-2-yl(4-((3-(tetrahydro-2H-pyran-3-yl)-2-pyrazinyl)oxy)phenyl)methanone] | < 25
6 | COc1cccc2nc(Nc3ccc(Oc4nccnc4C4CCOCC4)cc3)[nH]c12 [Example 209, 7-methoxy-N-(4-(3-(tetrahydro-2H-pyran-4-yl)pyrazin-2-yloxy)phenyl)-1H-benzo[d]imidazol-2-amine] | < 25

same assay, conditions: PDE10 enzyme inhibition; average IC50 data for each compound; read-out: Average IC50

Row | SMILES | IC50 [nM]
7 | O=C(c1ccc(Oc2nccnc2C(=O)O)cc1)c1nc2ccccc2[nH]1 | 556
8 | O=C(c1ccc(Oc2nccnc2N2CCC(CO)CC2)cc1)c1nc2ccccc2[nH]1 | 0.32
9 | CC(C)(O)[C@H]1CCCN(c2nccnc2Oc2ccc(C(=O)c3nc4ccccc4[nH]3)cc2)C1 (stereo in doubt) | 29
10 | O=C(c1ccc(Oc2nccnc2C2=CCOCC2)cc1)c1nc2ccccc2[nH]1 | 3.36
11 | Cc1nnc2n1CCN(c1nccnc1Oc1ccc(C(=O)c3nc4ccccc4[nH]3)cc1)C2 | 6.03

The next lines start with the values.

Row | IC50 [nM] | SMILES
12 | 1.86 | Cc1ncsc1CCOc1nccnc1Oc1ccc(C(=O)c2nc3ccccc3[nH]2)cc1 [drawing 853]
13 | 1.12 | O=C1CCC[C@@H](c2nccnc2Oc2ccc(Nc3nc4ccccc4s3)cc2)C1 [drawing 1002]
14 | 0.031 | C[C@@H](F)C(=O)N1CCC(c2nccnc2Oc2ccc(Nc3nc4ccccc4s3)cc2)CC1 [drawing 978]
15 | 36 | COc1cccc(-c2nccnc2Oc2ccc(C(=O)c3nc4ccccc4[nH]3)cc2)c1 [drawing 759]
16 | 235 | CN1CCCC1CCOc1nccnc1Oc1ccc(C(=O)c2nc3ccccc3[nH]2)cc1 (stereo not shown) [drawing 858]
17 | 10.8 | CCOC(=O)[C@@H]1CCCN(c2nccnc2Oc2ccc(C(=O)c3nc4ccccc4[nH]3)cc2)C1 [drawing 830]
18 | 76 | c1ccc2sc(Nc3ccc(Oc4nccnc4-c4cnc5[nH]ccc5c4)cc3)nc2c1 [drawing 765]
19 | > 30000 | Fc1ccc2sc(Nc3ccc(Oc4nccnc4Cl)cc3)nc2c1 [drawing 832]
20 | 5.84 | COc1ncccc1-c1nccnc1Oc1ccc(C(=O)c2nc3cc(F)ccc3[nH]2)cc1 [drawing 931]
21 | 29.1 | COCCOc1nccnc1Oc1ccc(C(=O)c2nc3ccccc3[nH]2)cc1 [drawing 848]
22 | 0.105 | [2H]C([2H])([2H])C(=O)N1CCC(c2nccnc2Oc2ccc(C(=O)c3nc4ccccc4[nH]3)cc2)CC1 [drawing 993]
23 | 2.06 | O=C(O)c1ccc(-c2nccnc2Oc2ccc(C(=O)c3nc4ccccc4[nH]3)cc2)cc1 [drawing 761]

same assay, conditions: PDE10 enzyme inhibition; chiral compounds separated from racemic mixtures; read-out: IC50

Row | SMILES | IC50 [nM]
24 | CCOC(=O)[C@H]1CCCN(c2nccnc2Oc2ccc(C(=O)c3nc4ccccc4[nH]3)cc2)C1 [Example 264, (S)-ethyl 1-(3-(4-(1H-benzo[d]imidazole-2-carbonyl)phenoxy)pyrazin-2-yl)piperidine-3-carboxylate] | < 25
25 | CCOC(=O)[C@@H]1CCCN(c2nccnc2Oc2ccc(C(=O)c3nc4ccccc4[nH]3)cc2)C1 [Example 263, (R)-ethyl 1-(3-(4-(1H-benzo[d]imidazole-2-carbonyl)phenoxy)pyrazin-2-yl)piperidine-3-carboxylate] | < 25
